# Experimental data from the supplement of paper PMC10307832.
# Compound: N[C@@H]1CCCN(c2c(/C=C3\SC(=O)NC3=O)cccc2-c2ccccc2)C1 [AZD1208] + CS(=O)(=O)CCNCc1ccc(-c2ccc3ncnc(Nc4ccc(OCc5cccc(F)c5)c(Cl)c4)c3c2)o1 [Lapatinib] (partner 2 µM)
# Test: relative viability (nuclei count vs DMSO), 5 days (fraction); higher = more cells survive
# Details: first compound 0.08 µM
# Procedure, shortened: (§1)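 Lung cancer cell lines were seeded in 1536-well plates and dosed by pin tool the next day, with either a single drug or a fixed anchor-drug dose combined with five library-drug doses (not always all listed) spaced in √10 steps. Five days later, one step fixed the cells and stained their nuclei (final 0.05% Triton X-100, 1% formaldehyde, 1 ug/ml Hoechst), and nuclei were counted on 4× images. Relative viability is the nuclei count in treated wells divided by the count in vehicle wells, and each value is the median of duplicate plates.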
row,Cell Line,relative viability
1,NCI-H838,0.988
2,NCI-H1650,0.777
3,EBC-1,0.195
4,NCI-H1703,0.852
5,NCI-H2009,0.982
6,PC-14,0.298
7,NCI-H596,1.05
8,NCI-H2228,1.03
9,EMC-BAC-2,0.827
10,NCI-H2087,1.11

# Same assay, conditions: first compound 0.253 µM
row,Cell Line,relative viability
1,NCI-H838,1.17
2,NCI-H1650,0.878
3,EBC-1,0.249
4,NCI-H1703,1.04
5,NCI-H2009,1.21
6,NCI-H1993,0.749
7,PC-14,0.417
8,NCI-H596,1.1
9,NCI-H2228,1.3
10,EMC-BAC-2,0.889
11,NCI-H2087,1.32

# Same assay, conditions: first compound 0.8 µM
row,Cell Line,relative viability
1,NCI-H838,0.856
2,NCI-H1650,0.735
3,EBC-1,0.193
4,NCI-H1703,0.804
5,NCI-H2009,0.817
6,NCI-H1993,0.689
7,PC-14,0.295
8,NCI-H596,0.967
9,NCI-H2228,0.971
10,EMC-BAC-2,0.783
11,NCI-H2087,1.13

# Same assay, conditions: first compound 2.53 µM
row,Cell Line,relative viability
1,NCI-H838,0.936
2,NCI-H1650,0.602
3,EBC-1,0.218
4,NCI-H1703,1.05
5,NCI-H2009,0.742
6,NCI-H1993,0.794
7,PC-14,0.327
8,NCI-H596,0.984
9,EMC-BAC-2,0.835
10,NCI-H2087,1.47

# Same assay, conditions: first compound 8 µM
row,Cell Line,relative viability
1,NCI-H838,0.86
2,NCI-H1650,0.667
3,EBC-1,0.2
4,NCI-H1703,0.626
5,NCI-H2009,0.893
6,NCI-H1993,0.75
7,PC-14,0.317
8,NCI-H596,0.835
9,NCI-H2228,0.652
10,EMC-BAC-2,0.723
11,NCI-H2087,0.9

# Compound: CN1CCN(CC1)C2=CC(=C(C=C2)NC3=NC(=C(S3)C(=O)C4=C(C=CC=C4Cl)Cl)N)OC [XMD14-99] + CS(=O)(=O)N1CCN(Cc2cc3nc(-c4cccc5[nH]ncc45)nc(N4CCOCC4)c3s2)CC1 [Pictilisib] (partner 1 µM)
# Test: as above
# Details: first compound 0.08 µM
# Procedure, shortened: as §1
row,Cell Line,relative viability
1,NCI-H838,0.434
2,NCI-H1650,0.561
3,EBC-1,0.481
4,NCI-H1703,0.276
5,NCI-H2009,0.752
6,NCI-H1993,0.888
7,PC-14,0.621
8,LCLC-103H,0.58
9,NCI-H596,0.399
10,NCI-H2228,0.567
11,EMC-BAC-2,0.573
12,NCI-H2087,0.95
13,ChaGo-K-1,0.811
14,NCI-H441,0.451

# Same assay, conditions: first compound 0.8 µM
row,Cell Line,relative viability
1,NCI-H838,0.411
2,NCI-H1650,0.67
3,EBC-1,0.391
4,NCI-H1703,0.269
5,NCI-H2009,0.948
6,NCI-H1993,0.759
7,PC-14,0.611
8,LCLC-103H,0.731
9,NCI-H596,0.413
10,NCI-H2228,0.31
11,EMC-BAC-2,0.519
12,NCI-H2087,0.787
13,ChaGo-K-1,0.703
14,NCI-H441,0.442

# Same assay, conditions: first compound 2.53 µM
row,Cell Line,relative viability
1,NCI-H838,0.38
2,NCI-H1650,0.505
3,EBC-1,0.318
4,NCI-H1703,0.27
5,NCI-H2009,0.85
6,NCI-H1993,0.766
7,PC-14,0.573
8,LCLC-103H,0.558
9,NCI-H596,0.35
10,NCI-H2228,0.271
11,EMC-BAC-2,0.519
12,NCI-H2087,0.602
13,ChaGo-K-1,0.67
14,NCI-H441,0.51

# Same assay, conditions: first compound 8 µM
row,Cell Line,relative viability
1,NCI-H838,0.296
2,NCI-H1650,0.328
3,EBC-1,0.26
4,NCI-H1703,0.22
5,NCI-H2009,0.556
6,NCI-H1993,0.798
7,PC-14,0.312
8,LCLC-103H,0.454
9,NCI-H596,0.396
10,NCI-H2228,0.184
11,EMC-BAC-2,0.413
12,NCI-H2087,0.525
13,ChaGo-K-1,0.509
14,NCI-H441,0.283

# Compound: CN1CCN(CC1)C2=CC(=C(C=C2)NC3=NC(=C(S3)C(=O)C4=C(C=CC=C4Cl)Cl)N)OC [XMD14-99]
# Test: relative viability (nuclei count vs DMSO), 5 days (fraction); higher = more cells survive
# Details: 0.08 µM
# Procedure, shortened: (§2)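 In 1536-well plates, lung cancer cell lines rested overnight at 37 °C before five library-drug doses (not always all listed), √10 apart, were pinned onto vehicle-anchored plates. Nuclei were counted with MetaXpress from 4× Hoechst images taken after 5 days without medium change. Viability compares treated-well with vehicle-well nuclei as a median over plates, and plates needed control CV below 25% plus at least one doubling to pass.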
row,Cell Line,relative viability
1,NCI-H522,0.891
2,NCI-H1623,0.959
3,NCI-H838,0.911
4,NCI-H1650,0.818
5,EBC-1,0.962
6,NCI-H1703,0.89
7,NCI-H2009,0.987
8,NCI-H1993,0.89
9,PC-14,1.02
10,LCLC-103H,0.953
11,NCI-H596,0.944
12,NCI-H2228,1.12
13,EMC-BAC-2,1.01
14,NCI-H2087,0.957
15,NCI-H2342,0.957
16,ChaGo-K-1,0.97
17,SW 900,0.918
18,NCI-H1648,0.845
19,NCI-H441,0.912

# Same assay, conditions: 0.8 µM
row,Cell Line,relative viability
1,NCI-H522,1.01
2,NCI-H1623,0.99
3,NCI-H838,0.939
4,NCI-H1650,0.976
5,EBC-1,0.924
6,NCI-H1703,0.912
7,NCI-H2009,1.03
8,NCI-H1993,0.987
9,PC-14,1.01
10,LCLC-103H,1.02
11,NCI-H596,1.05
12,NCI-H2228,0.961
13,EMC-BAC-2,1.03
14,NCI-H2087,0.968
15,NCI-H2342,0.932
16,ChaGo-K-1,1.03
17,SW 900,0.976
18,NCI-H1648,0.713
19,NCI-H441,0.968

# Same assay, conditions: 2.53 µM
row,Cell Line,relative viability
1,NCI-H522,1.07
2,NCI-H1623,1.01
3,NCI-H838,0.873
4,NCI-H1650,0.805
5,EBC-1,0.842
6,NCI-H1703,0.91
7,NCI-H2009,0.887
8,NCI-H1993,0.872
9,PC-14,0.907
10,LCLC-103H,0.963
11,NCI-H596,1.01
12,NCI-H2228,0.891
13,EMC-BAC-2,0.889
14,NCI-H2087,0.818
15,NCI-H2342,1.02
16,ChaGo-K-1,0.961
17,SW 900,0.753
18,NCI-H1648,0.734
19,NCI-H441,0.847

# Same assay, conditions: 8 µM
row,Cell Line,relative viability
1,NCI-H522,1
2,NCI-H1623,0.804
3,NCI-H838,0.658
4,NCI-H1650,0.807
5,EBC-1,0.637
6,NCI-H1703,0.761
7,NCI-H2009,0.804
8,NCI-H1993,0.806
9,PC-14,0.646
10,LCLC-103H,0.907
11,NCI-H596,0.887
12,NCI-H2228,0.398
13,EMC-BAC-2,0.645
14,NCI-H2087,0.483
15,NCI-H2342,0.761
16,ChaGo-K-1,0.939
17,SW 900,0.66
18,NCI-H1648,0.454
19,NCI-H441,0.645

# Compound: N[C@@H]1CCCN(c2c(/C=C3\SC(=O)NC3=O)cccc2-c2ccccc2)C1 [AZD1208]
# Test: as above
# Details: 0.08 µM
# Procedure, shortened: as §2
row,Cell Line,relative viability
1,NCI-H522,0.975
2,NCI-H1623,0.984
3,NCI-H838,0.938
4,NCI-H1650,0.924
5,EBC-1,1.02
6,NCI-H1703,0.846
7,NCI-H2009,1.03
8,NCI-H1993,0.931
9,PC-14,1.07
10,LCLC-103H,1.02
11,NCI-H596,0.908
12,NCI-H2228,0.954
13,EMC-BAC-2,1.23
14,NCI-H2087,0.956
15,NCI-H2342,1.07
16,ChaGo-K-1,1.13
17,SW 900,0.837
18,NCI-H1648,0.981
19,NCI-H441,0.937

# Same assay, conditions: 0.253 µM
row,Cell Line,relative viability
1,NCI-H522,0.922
2,NCI-H1623,0.912
3,NCI-H838,0.967
4,NCI-H1650,1.1
5,EBC-1,1.12
6,NCI-H1703,0.881
7,NCI-H2009,1.07
8,NCI-H1993,0.779
9,PC-14,1.11
10,LCLC-103H,1.04
11,NCI-H596,0.951
12,NCI-H2228,1.19
13,EMC-BAC-2,0.95
14,NCI-H2087,1.18
15,NCI-H2342,0.944
16,ChaGo-K-1,1.03
17,SW 900,0.989
18,NCI-H1648,1.25
19,NCI-H441,1.14

# Same assay, conditions: 0.8 µM
row,Cell Line,relative viability
1,NCI-H522,0.816
2,NCI-H1623,0.764
3,NCI-H838,0.841
4,NCI-H1650,0.868
5,EBC-1,0.93
6,NCI-H1703,0.846
7,NCI-H2009,1.01
8,NCI-H1993,0.808
9,PC-14,0.923
10,LCLC-103H,0.938
11,NCI-H596,0.844
12,NCI-H2228,0.953
13,EMC-BAC-2,0.917
14,NCI-H2087,0.821
15,NCI-H2342,0.84
16,ChaGo-K-1,0.924
17,SW 900,0.822
18,NCI-H1648,0.921
19,NCI-H441,0.896

# Same assay, conditions: 2.53 µM
row,Cell Line,relative viability
1,NCI-H522,0.816
2,NCI-H1623,0.871
3,NCI-H838,0.902
4,NCI-H1650,0.898
5,EBC-1,0.967
6,NCI-H1703,0.718
7,NCI-H2009,0.975
8,NCI-H1993,0.818
9,PC-14,0.996
10,LCLC-103H,0.773
11,NCI-H596,0.949
12,NCI-H2228,0.788
13,EMC-BAC-2,0.949
14,NCI-H2087,1.01
15,NCI-H2342,0.945
16,ChaGo-K-1,1.04
17,SW 900,1
18,NCI-H1648,1.04
19,NCI-H441,0.989

# Same assay, conditions: 8 µM
row,Cell Line,relative viability
1,NCI-H522,0.769
2,NCI-H1623,0.746
3,NCI-H838,0.844
4,NCI-H1650,0.88
5,EBC-1,0.957
6,NCI-H1703,0.654
7,NCI-H2009,1
8,NCI-H1993,0.733
9,PC-14,0.953
10,LCLC-103H,0.777
11,NCI-H596,0.677
12,NCI-H2228,0.84
13,EMC-BAC-2,0.754
14,NCI-H2087,1.01
15,NCI-H2342,0.765
16,ChaGo-K-1,0.893
17,SW 900,0.799
18,NCI-H1648,1.05
19,NCI-H441,0.736
